According to paper PMC8957246, “Synthesis and diverse biological activity profile of triethylammonium isatin-3-hydrazones” (ADMET & DMPK, 2022):
Marks after values point to notes of the source that are not given here.

Experiments:
[1] = system: Enterococcus faecalis ATCC 29212; test: Antimicrobial activity, serial dilution (MIC/MBC), Ef; assay type: cell-based; details: ATCC29212
Procedure: The antimicrobial activity of the test compounds was determined by the serial dilution technique in Muller Hinton Broth 2 and in Sabouradu broth for fungi. The cultures used for testing included Gram-positive bacteria: Staphylococcus aureus ATCC 6538P FDA 209P, Bacillus cereus ATCC 10702 NCTC 8035, Enterococcus faecalis ATCC 29212; Gram-negative bacteria: Escherichia coli ATCC 25922, Pseudomonas aeruginosa ATCC 9027, and fungi: Trichophyton mentagrophytes var. gypseum 1773, and Candida albicans ATCC 10231; methicillin-resistant strains of S. aureus (MRSA) was obtained from hospital patients with chronic tonsillitis in the Republican Clinical Hospital (Kazan, Russia). The bacterial load was 3.0 × 10^5 cfu/ml. The fungi load was 2.0 × 10^3 cfu/ml. The results were recorded every 24 h for 5-7 days. Cultures were incubated at 37 °C. The experiment was repeated three times. […] The minimum inhibitory concentration (MIC) was defined as the minimum concentration of a compound that inhibits the growth of the corresponding test microorganism. The growth of bacteria, as well as the absence of the growth due to the bacteriostatic action of compounds, were recorded.
Synthesized compounds were further evaluated for antimicrobial activity against test microorganisms: Staphylococcus aureus ATCC 209p (Sa), Bacillus cereus ATCC 8035 (Bc), Escherichia coli CDC F-50 (Ec), Enterococcus faecalis (Ef), Pseudomonas aeruginosa ATCC 9027, Aspergillus niger BKMF-1119, Trichophyton mentagrophytes var. gypseum 1773, and Candida albicans 855-653 including methicillin-resistant strains of S. aureus (MRSA 1 and MRSA 2). The minimum inhibitory (MIC) and minimum bactericidal (MBC) concentrations of ammonium salts were determined against these pathogens (Table 1). Due to the lack of activity of compounds 3a-g against Gram-negative bacterial strains and some fungi, the corresponding data are not shown.

[2] = system: activated partial thromboplastin time (intrinsic coagulation pathway); test: Anticoagulant activity, clotting test APTT; design: species or system human; details: for APTT, % of control: concentration 5×10^–4 g/mL, median (25-75 percentiles); for anticoagulant activity: APTT, p<0.05
Procedure: The in vitro experiments were performed using the blood of healthy male donors aged 18-24 years (total 54 donors). The study was approved by the Ethics Committee of Federal State Budgetary Educational Institution of Higher Education at the Bashkir State Medical University of the Ministry of Health of Russian Federation (No.2 dated 17.10.2012). Informed consent was obtained from all participants before blood sampling. The blood was collected from the cubital vein using the system of vacuum blood collection BD Vacutainer® (Becton, Dickinson and Company, USA). A 3.8 % sodium citrate solution in a 9:1 ratio was used as a venous blood stabiliser. The study of the effect on platelet aggregation was performed using the Born method using the aggregometer «AT-02» (SPC Medtech, Russia). The assessment of antiplatelet activity of the studied compounds and reference preparations was started with the final concentration of 2×10^–3 mol/L. Adenosine diphosphate (ADP; 20 μg/mL) and collagen (5 mg/mL) manufactured by Tehnologia-Standart Company, Russia, were used as inducers of aggregation. The study on the anticoagulant activity was performed by standard recognised clotting tests using the optical two-channel automatic analyser of blood coagulation Solar CGL 2110 (CJSC SOLAR, Belarus). The following parameters were studied: activated partial thromboplastin time (APTT), prothrombin time (PT) and fibrinogen concentrations according to the Clauss method. The determination of anticoagulant activity of the studied compounds and reference preparation was performed in a concentration of 5×10^–4 g/mL using the reagents manufactured by Tehnologia-Standart Company (Barnaul, Russia). The results of the study were processed using the statistical package Statistica 10.0 (StatSoft Inc, USA). The Shapiro–Wilk’s test was used to check the normality of actual data distribution. The form of distribution of the data obtained differed from the normal one; therefore, non-parametric methods were used for further analysis. The data were presented as medians and 25 and 75 percentiles. Analysis of variance was conducted using Kruskal–Wallis test. A p value of 0.05 was considered statistically significant.

| MIC [1] [µM] | Structure (SMILES) | MBC [1] [µM] | APTT, % of control [2] | anticoagulant activity [2] [%] |
| --- | --- | --- | --- | --- |
| > 500 | CC[N+](CC)(CC)CC(=O)N/N=C1\C(=O)N(Cc2cc(C(C)(C)C)c(O)c(C(C)(C)C)c2)c2ccccc21 [Compound 3a, 2-(2-(1-(3,5-Di-tert-butyl-4-hydroxybenzyl)-2-oxoindolin-3-ylidene)hydrazinyl)-N,N,N-triethyl-2-oxoethanammonium bromide] | > 500 | +5.2 (4.1-7.6) ^*, ^† % of control |  |
| > 500 | CCc1cccc2c1N(Cc1cc(C(C)(C)C)c(O)c(C(C)(C)C)c1)C(=O)/C2=N\NC(=O)C[N+](CC)(CC)CC [Compound 3c, 2-(2-(1-(3,5-Di-tert-butyl-4-hydroxybenzyl)-7-ethyl-2-oxoindolin-3-ylidene)hydrazinyl)-N,N,N-triethyl-2-oxoethanammonium bromide] | > 500 | +11.2 (7.9-13.1) ^*, ^† % of control | ≥ 10 |
| 49.6 ± 3.9 | CC[N+](CC)(CC)CC(=O)N/N=C1\C(=O)N(Cc2cc(C(C)(C)C)c(O)c(C(C)(C)C)c2)c2c1ccc(C)c2C [Compound 3d, 2-(2-(1-(3,5-Di-tert-butyl-4-hydroxybenzyl)-6,7-dimethyl-2-oxoindolin-3-ylidene)hydrazinyl)-N,N,N-triethyl-2-oxoethanammonium bromide] | 49.6 ± 3.9 | +4.8 (3.7-6.9) ^‡ % of control |  |
| > 500 | CC[N+](CC)(CC)CC(=O)N/N=C1\C(=O)N(Cc2cc(C(C)(C)C)c(O)c(C(C)(C)C)c2)c2cccc(Br)c21 [Compound 3e, 2-(2-(1-(3,5-Di-tert-butyl-4-hydroxybenzyl)-4-bromo-2-oxoindolin-3-ylidene)hydrazinyl)-N,N,N-triethyl-2-oxoethanammonium bromide] | > 500 | +3.2 (2.8-5.4) ^‡ % of control |  |
| > 500 | CC[N+](CC)(CC)CC(=O)N/N=C1\C(=O)N(Cc2cc(C(C)(C)C)c(O)c(C(C)(C)C)c2)c2ccc([N+](=O)[O-])cc21 [Compound 3f, 2-(2-(1-(3,5-Di-tert-butyl-4-hydroxybenzyl)-5-nitro-2-oxoindolin-3-ylidene)hydrazinyl)-N,N,N-triethyl-2-oxoethanammonium bromide] | > 500 | +10.3 (8.5-12.7) ^*, ^† % of control | ≥ 10 |
| > 500 | CC[N+](CC)(CC)CC(=O)N/N=C1\C(=O)N(Cc2cc(C(C)(C)C)c(O)c(C(C)(C)C)c2)c2c(Br)cc(Cl)cc21 [Compound 3g, 2-(2-(1-(3,5-Di-tert-butyl-4-hydroxybenzyl)-5-chloro-7-bromo-2-oxoindolin-3-ylidene)hydrazinyl)-N,N,N-triethyl-2-oxoethanammonium bromide] | > 500 | +8.6 (6.1-10.9) ^*, ^† % of control |  |
